Holding throughout (assay): NCI tumour cell line growth inhibition, 48 h
The test system of experiment [1] is M14 melanoma.
Experiment [2] deals with UO-31 renal.
For experiment [3], the system named is RXF 393 renal.
In experiment [4] the test system is SF-268 CNS.
The test system of experiment [5] is KM12 colon.
Experiment [6] relates to UACC-257 melanoma.
In experiment [7] the test system is SK-MEL-5 melanoma.
Experiment [8] has as its system MALME-3M melanoma.
The subject of experiment [9] is MDA-MB-435.
Experiment [10] relates to MCF7 breast.
For experiment [11], the system named is 786-0 renal.
For experiment [12], the system named is OVCAR-8 ovarian.
Experiment [13] deals with CCRF-CEM leukemia.
The subject of experiment [14] is HS 578T breast.
The test system of experiment [15] is T-47D breast.

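Interpolation was linear, between the two tested concentrations surrounding the appropriate level; five concentrations were tested over 48 hours in 96-well plates. Here, GI50 denotes the concentration required for 50% inhibition of growth. TGI: total growth inhibition.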

With `CCCCCCCCCCCCCCCCOCC(CC(F)(F)P(=O)(OCC)OCC)OC(C)=O` (stereo not given), the TGI in experiment [1] came to 31.9 µM; in experiment [2], 29.5 µM; in [3], 38.5 µM; in experiment [4], 27.5 µM; in [5] it was 23.8 µM; in experiment [6], 33 µM. Besides, the TGI in [7] is 36.2 µM; in [8], 25.7 µM; in experiment [9] it was 33.9 µM; in [10], 33.5 µM; in experiment [11], 23 µM.

Consider `C=CCC(N(C)C(=O)[C@H](Cc1ccccc1)NC(=O)OCc1ccccc1)P(=O)(Oc1ccccc1)Oc1ccccc1` (stereo not given in full), for which the TGI in experiment [1], in experiment [2], in [3], in experiment [4], in [12] and in [5] was over 100 µM each time. Besides, the TGI in experiment [6], in experiment [8], in experiment [11] and in [13] was over 100 µM throughout.

Take `CC(C)CC(NC(=O)OC(C)(C)C)C(=O)Nc1ccc(Nc2nc(F)nc(-c3c4ccccc4c4n3CCS4)n2)cc1` (stereo not given): the TGI in experiment [1] was determined as 35.1 µM; in experiment [2], 34.8 µM; in [3], 62.1 µM; in experiment [4] it was 61.3 µM; in experiment [12], 38.3 µM; in [5], 51.1 µM. In addition, the TGI was 48.3 µM in experiment [6]; 41.2 µM in experiment [7]; 38.9 µM in experiment [8]; 34.8 µM in experiment [11]; 16.9 µM in experiment [13].

On to `CCOC(=O)c1c(N)sc2c1C(C)(C(=O)OCC)CC2` (stereo not given), for which the TGI in experiment [1], in experiment [2], in [3], in [12], in experiment [5] and in experiment [6] was over 100 µM each time. Besides, the TGI in experiment [7], in experiment [8], in [14], in experiment [10] and in experiment [11] was over 100 µM in each case.

For the compound `CC[C@@H]1CC[C@@H]2[C@H](CC[C@]3(C)[C@@H](OS(=O)(=O)c4ccc(C)cc4)CC[C@@H]23)[C@H]1COS(=O)(=O)c1ccc(C)cc1`, the TGI in experiment [1], in experiment [2], in experiment [3], in [4], in experiment [12] and in [6] was over 100 µM each time. Further, the TGI in [7], in experiment [8], in experiment [9], in experiment [14], in [10] and in experiment [11] was over 100 µM each time. Further, the TGI in experiment [13] is over 100 µM.

On to `O=C1c2ccccc2OP(=O)(OCC(F)(F)F)OC1(C(F)(F)F)C(F)(F)F` (stereo not given), for which the TGI in experiment [1], in [2], in experiment [3], in experiment [4], in experiment [12] and in experiment [5] was over 100 µM in each case. The TGI in [6], in experiment [7], in experiment [11] and in experiment [13] was over 100 µM in each case.

Consider `Cc1ccc([N+](=O)[O-])cc1NC(=O)/C(=N/NC(=S)NN)C1SC(=S)NC1=O` (stereo not given), for which the TGI in [1], in experiment [2], in experiment [3], in experiment [4], in experiment [12] and in experiment [5] was over 100 µM in each case. Besides, the TGI in experiment [6], in [7], in experiment [8], in [11] and in experiment [13] was over 100 µM throughout.

Consider `COC(=O)CC1NC(=O)[C@@H]1C(C)O` (stereo not given in full), for which the TGI in [1], in experiment [2], in experiment [3], in experiment [4], in experiment [12] and in [6] was over 100 µM in each case. Moreover, the TGI in [7], in experiment [8], in [11] and in experiment [13] was over 100 µM each time.

As to `O=S(Nc1ccccc1)c1cccc(Cl)c1` (stereo not given), the TGI in [1], in experiment [2], in experiment [3], in experiment [4], in experiment [12] and in experiment [5] was over 100 µM each time. Also, the TGI in experiment [6], in experiment [7], in experiment [8], in experiment [9], in experiment [14] and in experiment [10] was over 100 µM each time. Further, the TGI in experiment [11] and in experiment [13] was over 100 µM each time.

`COc1ccc(CNC(=O)NCn2cc(-c3ccccc3)nn2)cc1`: the TGI in experiment [1], in [4], in [12], in experiment [5], in experiment [6] and in [7] was over 100 µM each time. Moreover, the TGI in experiment [8], in experiment [9], in experiment [10], in experiment [11] and in experiment [13] was over 100 µM in each case.

For the compound `N#C/C(c1nc2ccccc2[nH]1)=c1\s/c(=C/c2ccc(Cl)cc2)c(=O)n1-c1ccccc1`, the TGI in experiment [1], in [2], in experiment [4], in experiment [12], in experiment [5] and in experiment [6] was over 100 µM in each case. The TGI in experiment [7], in experiment [8], in experiment [11] and in experiment [13] was over 100 µM in each case.

For `CCSc1n/c(=C\c2ccco2)c2nncn12`, the TGI in experiment [1], in experiment [2], in experiment [4], in experiment [12], in experiment [5] and in [7] was over 100 µM each time. The TGI in experiment [8], in experiment [9], in experiment [14], in experiment [10], in experiment [11] and in experiment [13] was over 100 µM each time.

In the case of `CC(C)C1=CC23CCC4C(C)(C(=O)O)CCCC4(C)C2CC1C1C(=O)N(c2ccccc2N2C(=O)C4C5CC6C7(C)CCCC(C)(C(=O)O)C7CCC6(C=C5C(C)C)C4C2=O)C(=O)C13` (stereo not given), the TGI in experiment [1] came to 19.8 µM; in [2] it was 32.3 µM; in experiment [3], 32.1 µM; in [4], 16.5 µM; in [5] it was 13.8 µM; in experiment [15] it was 42.5 µM. Further, the TGI is 17.5 µM in [7]; 28.3 µM in experiment [8]; 13.1 µM in experiment [9]; 34.1 µM in experiment [14]; 62.8 µM in [11]; 22.1 µM in [13].

In the case of `COc1cc(CO)c(CC(=O)NCCCc2ccccc2)cc1OC`, the TGI in [1], in [2], in [12], in experiment [5], in experiment [6] and in experiment [15] was over 100 µM in each case. The TGI in experiment [7], in experiment [8], in experiment [9], in experiment [14], in experiment [11] and in [13] was over 100 µM in each case.

With `COc1cccc([C@H]2C/C(=N\NC(=O)C(=O)N[C@@H](C)c3ccccc3)c3ccccc3N2)c1`, the TGI was over 100 µM in experiment [1]; over 100 µM in experiment [2]; over 100 µM in experiment [3]; over 100 µM in [4]; 1.05 µM in [12]; 0.0762 µM in [5]. Moreover, the TGI in experiment [6] is over 100 µM; in experiment [7], 0.868 µM; in experiment [14], 0.088 µM; in experiment [10], over 100 µM; in experiment [11], 97.3 µM; in experiment [13] it was 3.09 µM. Besides, the GI50 in experiment [3] was 0.0303 µM; in experiment [4], 0.0912 µM; in [12] it was 0.0285 µM; in experiment [10], 0.0306 µM.

Regarding `C=CCOC(=O)NC1C(OC(C)[C@@H](NC(=O)OCc2ccccc2)C(=O)OC(C)(C)C)OC(COC(C)=O)C(OC(C)=O)C1OC(C)=O` (stereo not given in full), the TGI in experiment [1] is over 100 µM; in experiment [2] it was 47.3 µM; in experiment [3], over 100 µM; in experiment [4], over 100 µM; in [12], over 100 µM; in [5] it was over 100 µM. Moreover, the TGI in experiment [6], in experiment [7], in [8], in [9], in experiment [14] and in experiment [10] was over 100 µM in each case. The TGI in experiment [11] and in experiment [13] was over 100 µM each time.

With `Cc1ccc(N2C(=O)CS/C2=C(\C#N)c2nc3ccccc3[nH]2)cc1`, the TGI in experiment [1], in [2], in experiment [4], in [12], in experiment [5] and in experiment [6] was over 100 µM in each case. The TGI in experiment [7], in experiment [8], in experiment [11] and in experiment [13] was over 100 µM each time.

As to `COc1ccc(N=Cc2ccc(N(CCC#N)S(=O)(=O)c3ccccc3)cc2)cc1`, the TGI in [1], in experiment [2], in experiment [3], in experiment [4], in [12] and in experiment [5] was over 100 µM in each case. In addition, the TGI in experiment [6], in [7], in [8], in experiment [11] and in [13] was over 100 µM each time.

For `CCOC(=O)/C=C/n1c2ccccc2c(=O)c2ccccc21`, the TGI in [1], in experiment [2], in experiment [3], in experiment [4], in experiment [12] and in [5] was over 100 µM in each case. In addition, the TGI in [6], in [8], in experiment [11] and in experiment [13] was over 100 µM throughout.

As to `Nc1nc(SCc2ccc([N+](=O)[O-])cc2)nc2c1ncn2C1OC(CO)C(O)C1O` (stereo not given), the TGI in experiment [2], in experiment [3], in experiment [4], in experiment [12], in experiment [5] and in [6] was over 100 µM in each case. The TGI in [7], in experiment [8], in experiment [11] and in experiment [13] was over 100 µM each time.

As for `CCOc1ccc(/C(Cl)=C(\C=O)c2ccc(OC)c(OC)c2)cc1OCC`, the TGI in experiment [1], in experiment [2], in experiment [3], in experiment [4], in experiment [12] and in [5] was over 100 µM in each case. In addition, the TGI in [6] is over 100 µM; in experiment [7], 64.9 µM; in experiment [8] it was over 100 µM; in experiment [11] it was over 100 µM; in [13] it was over 100 µM.

Turning to `COc1ccc(-n2c(=O)[nH]n(C(C)=O)c2=O)cc1`, the TGI in [1], in experiment [2], in experiment [3], in experiment [4], in [12] and in [5] was over 100 µM each time. For the same compound, the TGI in experiment [6], in experiment [7], in experiment [8], in [9], in [14] and in experiment [10] was over 100 µM each time. Further, the TGI in experiment [11] and in experiment [13] was over 100 µM in each case.

With `CC1CN(c2ccc(Cl)cc2)CC(C)OC(=O)O1` (stereo not given), the TGI in experiment [1], in [2], in experiment [3], in experiment [4], in experiment [12] and in [5] was over 100 µM throughout. The TGI in [6], in experiment [7], in [8], in [11] and in experiment [13] was over 100 µM in each case.

(Values after PubChem BioAssay (NCI).)
